Results reported in patent US3976673A, “4-Cyclopropylmethyleneoxy-3-chlorophenylacetic acid and salts thereof” (priority 1974, dated 1976).
Entries after “also recorded” stand apart in the source; their conditions may differ.

Assays:
[1] = system: hyperpyressia induced by bactopeptone; test: Anti-piretic activity, hyperpyressia induced by bactopeptone; format: in vivo, Wistar male rats
Experimental: (§1) This was evaluated considering 2 kinds of hyperpyressia. Hyperpyressia induced by:
1 Milliliter of 5% aqueous solution of bactopeptone preincubated for 18 hours at 37°C were injected subcutaneously in Wistar male rats weighing 170-190 g. 4 Hours after treatment with the pyrogen, the animals were divided into groups of ten animals each and treated orally with the substances under examination. The rectal temperature was taken at the beginning of the test, 4 hours after the injection of the pyrogen agent and subsequently 1, 2 and 3 hours after the administration of the substances under test. The difference between the temperature taken in the treated animals and in controls is an index of the anti-pyretic activity.

[2] = system: abdominal stretching induced by phenylbenzoquinone; test: Analgesic activity, Siegmund (phenylbenzoquinone abdominal stretching); format: in vivo, Swiss male mice; details: salts' dosage expressed as acid, vs water controls
Experimental: It was evaluated according to the following methods:
The antagonism towards the abdominal stretching induced by phenylbenzoquinone was evaluated. Swiss male mice weighing 19-21 g were treated orally with the compounds under examination 30 minutes before the endoperitoneal administration of 0.25 ml of a […] aqueous phenylbenzoquinone solution. The animals were kept under observation for 30 minutes after treatment with phenylbenzoquinone and the abdominal stretchings for each animal were counted. 10 Mice for each dosage level were used and the corresponding average values considered. The percentage decrease of the number of abdominal stretchings in the animals treated with the substances under test compared with the controls treated with water was taken as the index of the analgesic activity.

[3] = system: edema induced by carrageenin; test: Anti-inflammatory activity, Winter's method (carrageenin edema); format: in vivo, male rats; details: 3 hours after carrageenin
Experimental: This was determined according to Winter's method which evaluates the inhibiting effect on the edema induced by carrageenin.
Male rats weighing 170-190 g were treated with the compounds under test and after 60 minutes 0.005 ml of a 1% aqueous solution of carrageenin were injected into the plantar zone of a hind paw of each animal. The volume of the treated paw was determined immediately after the injection and 3 hours later.
10 Animals were used for each dosage level. The increase difference in the volume of the paw of animals treated compared with the controls represents the index of the anti-inflammatory activity. The results obtained, expressed as percentage inhibition of the volume of the edema compared to the controls and evaluated as average value for each dose are listed in Table 3.

[4] = system: hyperpyressia induced by yeast; test: Anti-piretic activity, hyperpyressia induced by yeast; format: in vivo, albino rabbits
Experimental: as §1
To albino rabbits, 1 ml/kg of a 0.2% aqueous suspension of yeast were injected intravenously. The rectal temperature was teken at the beginning of the experiment and 60 minutes after the treatment with the pyrogen agent. Immediately after taking the temperature the compounds under test were administered orally to the animals and the rectal temperatures thereof were subsequently measured after 30, 60, 120 and 180 minutes. 10 Animals were treated for each dose level. The difference between the temperatures taken in the animals treated and in the controls is and index of the antipyretic activity. The results obtained by performing the two methods cited above for the determination of the antipyretic activity are listed in Tables 4 and 5 respectively and evaluated as average value for each dose.

[5] = system: pain threshold of rat's paw made edematous by yeast; test: Analgesic activity, Randall and Selitto (pain threshold of edematous rat paw); format: in vivo, male Wistar rats; details: vs basal values
Experimental: It was evaluated according to the following methods: a. Randall and Selitto The pressure to be exerted on a rat's paw previously made edematous by injecting into the plantar zone 0.1 ml of 20% suspension of yeast until appearance of painful reaction was measured in mmHg. The pain threshold was determined 30 minutes before and 30, 60, 90 and 120 minutes after the administration of the substances under test. 10 Male Wistar rats weighing 170-190 g were used for each dosage level and the corresponding average values considered for each dose. The percentage increase of the pain threshold compared to the basal values is taken as the index of the analgesic activity.

[6] = Toxicity / therapeutical index (general statement); details: statement in words
[7] = Chemical stability (general statement); format: physicochemical; details: statement in words
[8] = 15 mg/kg os, salts' dosage expressed as acid
[9] = 25 mg/kg os, salts' dosage expressed as acid
[10] = 5 mg/kg i.p., salts' dosage expressed as acid
[11] = 10 mg/kg os, salts' dosage expressed as acid
[12] = 25 mg/kg i.p., salts' dosage expressed as acid
[13] = 50 mg/kg i.p., salts' dosage expressed as acid
[14] = 50 mg/kg os, salts' dosage expressed as acid

Compound	Rectal temperature, 1 hour after treatment [1, 8] [°C]	Rectal temperature, 2 hours after treatment [1, 8] [°C]	Rectal temperature, 3 hours after treatment [1, 8] [°C]	Rectal temperature, 1 hour after treatment [1, 9] [°C]	Rectal temperature, 2 hours after treatment [1, 9] [°C]	Rectal temperature, 3 hours after treatment [1, 9] [°C]	% Decrease in number of stretchings ([2]; 25 mg/kg os) [%]	% Decrease in number of stretchings ([2]; 50 mg/kg os) [%]	% Decrease in number of stretchings ([2]; 100 mg/kg os) [%]	% Inhibition of oedema ([3]; 2.5 mg/kg i.p.) [%]	% Inhibition of oedema [3, 10] [%]	% Inhibition of oedema [3, 11] [%]	% Inhibition of oedema [3, 12] [%]	% Inhibition of oedema [3, 13] [%]	% Inhibition of oedema [3, 14] [%]	Rectal temperature, 30 mins. after treatment ([4]; 10 mg/kg per os) [°C]	% Increase of pain threshold [5, 12] [%]	% Increase of pain threshold [5, 9] [%]	% Increase of pain threshold [5, 13] [%]	% Increase of pain threshold [5, 14] [%]	other results
C=CCOc1ccc(CC(=O)O)cc1Cl [4-allyloxy-3-chlorophenylacetic acid, reference compound]	38.2	38.7	38.4	37.6	38.4	38.5	27	58	96	0	10	18	25	57	34	40.30	7	15	30	57	Rectal temperature, 1 hour after treatment ([1]; 50 mg/kg os): 37.7 °C; Rectal temperature, 2 hours after treatment ([1]; 50 mg/kg os): 37.5 °C; Rectal temperature, 3 hours after treatment ([1]; 50 mg/kg os): 37.7 °C; Rectal temperature, 60 mins. after treatment ([4]; 10 mg/kg per os): 40.13 °C; Rectal temperature, 120 mins. after treatment ([4]; 10 mg/kg per os): 40.06 °C; Rectal temperature, 180 mins. after treatment ([4]; 10 mg/kg per os): 40.03 °C; Rectal temperature, 30 mins. after treatment ([4]; 25 mg/kg per os): 40.35 °C; Rectal temperature, 60 mins. after treatment ([4]; 25 mg/kg per os): 39.85 °C; Rectal temperature, 120 mins. after treatment ([4]; 25 mg/kg per os): 39.30 °C; Rectal temperature, 180 mins. after treatment ([4]; 25 mg/kg per os): 39.25 °C; % Increase of pain threshold ([5]; 100 mg/kg i.p.): 93%; % Increase of pain threshold ([5]; 100 mg/kg os): 92%
O=C(O)Cc1ccc(OCC2CC2)c(Cl)c1 [4-cyclopropylmethyleneoxy-3-chlorophenylacetic acid]	37.7	38.0	37.6	37.3	37.3	37.1	51	77	98	15	37	31	55	61	65	40.05	27	44	105	120	Rectal temperature, 1 hour after treatment ([1]; 6 mg/kg os): 38.7 °C; Rectal temperature, 2 hours after treatment ([1]; 6 mg/kg os): 39.3 °C; Rectal temperature, 3 hours after treatment ([1]; 6 mg/kg os): 39.1 °C; Rectal temperature, 30 mins. after treatment ([4]; 5 mg/kg per os): 40.17 °C; Rectal temperature, 60 mins. after treatment ([4]; 5 mg/kg per os): 40.15 °C; Rectal temperature, 120 mins. after treatment ([4]; 5 mg/kg per os): 40.55 °C; Rectal temperature, 180 mins. after treatment ([4]; 5 mg/kg per os): 40.02 °C; Rectal temperature, 60 mins. after treatment ([4]; 10 mg/kg per os): 39.90 °C; Rectal temperature, 120 mins. after treatment ([4]; 10 mg/kg per os): 39.48 °C; Rectal temperature, 180 mins. after treatment ([4]; 10 mg/kg per os): 39.32 °C; Rectal temperature, 30 mins. after treatment ([4]; 25 mg/kg per os): 40.65 °C; Rectal temperature, 60 mins. after treatment ([4]; 25 mg/kg per os): 39.95 °C; Rectal temperature, 120 mins. after treatment ([4]; 25 mg/kg per os): 39.20 °C; Rectal temperature, 180 mins. after treatment ([4]; 25 mg/kg per os): 39.05 °C; toxicity [6]: low toxicity; % Increase of pain threshold ([5]; 100 mg/kg i.p.): 176%; % Increase of pain threshold ([5]; 100 mg/kg os): 180%; stability of chemical structure [7]: noticeable stability; also recorded: chemically stable
O=C(O)Cc1ccc(OCC2CC2)c(Cl)c1 [DL-lysine 4-cyclopropylmethyleneoxy-3-chlorophenylacetate]	37.6	38.0	37.8	37.4	37.0	36.7	60	90	100		38	41	64		81		83	30	103	104	
O=C([O-])Cc1ccc(OCC2CC2)c(Cl)c1.O=C([O-])Cc1ccc(OCC2CC2)c(Cl)c1.[Cu+2] [copper 4-cyclopropylmethyleneoxy-3-chlorophenylacetate]	38.1	37.7	36.7	37.8	37.2	36.6	50	81	99		32	38	51	61	71		67	62	121	116	
CCCCC1C(=O)N(c2ccccc2)N(c2ccccc2)C1=O [phenylbutazone, 4-butyl-1,2-diphenyl-3,5-dioxopyrazoline, reference compound]	38.3	38.8	38.6	38.1	38.9	38.3	3	65	98	0	3	0	22	55	28		3	33	42	94	Rectal temperature, 1 hour after treatment ([1]; 100 mg/kg os): 38.1 °C; Rectal temperature, 2 hours after treatment ([1]; 100 mg/kg os): 37.6 °C; Rectal temperature, 3 hours after treatment ([1]; 100 mg/kg os): 37.4 °C
